Test results as given in patent US20250320397A1, “NON-PFAS REFRIGERANTS AND METHODS OF COOLING ELECTRONICS” (Honeywell International Inc., priority 2024, published 2025).

Assays:
[1] = Boiling point determination (Example 2); format: physicochemical; details: for Bp: Table 3, approximate physical properties; for BP: Table 5
Procedure: (§1) The boiling point (“BP”) of HFO-1336pyy and HFO-1336eyc were determined and the results are reported below in Table 5. The dielectric constant (“Dk”) of HFO-1336pyy and HFO-1336eyc(E) were measured, whereas the Dk of HFO*1336eyc (Z) was calculated using the Kirkwood model as described in Harvey, A. H. and Lemmon, E. W., International Journal of Thermophysics, Vol. 26, No. 1, 2005. The measured dielectric property were determined using the Agilent 85070 Dielectric Probe. All measurements were made at ambient pressure and room temperature (approximately 23° C.). Prior to making measurements, the system was calibrated from 1 GHz to 20 GHz with an open circuit, a short circuit, and DI water (@22.4° C.) standard. The accuracy of the probe is given as: Dielectric constant, er′=er′+/−0.05|er*| with er″=er″+/−0.05|er*| and (loss=er″/er′).

[2] = Dielectric constant measured with Agilent 85070 Dielectric Probe (Example 2); format: physicochemical; details: ambient pressure, room temperature (approximately 23° C.); for Dielectric Constant (Dk): Table 3; for Dk: Table 5, probe calibrated 1 GHz to 20 GHz
Procedure: “Dielectric Constant” means the dielectric constant as measured in accordance with ASTM D150-11 statically and at room temperature.
as §1

[3] = Excerpt: This is experimentally determined where a liquid spill is simulated by pouring the liquid of interest into a watch glass. The flammability of, primarily, a single component or a blend is characterized throughout the evaporation of the puddle to dryness. […] The watch glass test is a conservative test because no external heat is applied to the watch glass, which is chilled by the evaporating solvent. The cold watch glass acts as a condenser for the vapors of higher boiling point blend components. In the case where a flammable component is high boiling, its concentration increases throughout the evaporation time, rendering the mixture more flammable than it would be under temperature-controlled blend segregation experiments.
This was experimentally determined where a liquid spill was simulated by pouring HFO-1336pyy(Z) into a watch glass. The flammability was characterized throughout the evaporation of the puddle to dryness.

F/C(=C(\F)C(F)F)C(F)F [Compound 1, (Z)-1,1,2,3,4,4-hexafluorobut-2-ene]
Bp [1]: 58.2 °C
BP [1]: 58.2 °C
Dielectric Constant (Dk) [2]: 6.72
Dk [2]: 6.72

F/C(=C(/F)C(F)F)C(F)F [Compound 2, (E)-1,1,2,3,4,4-hexafluorobut-2-ene]
Bp [1]: 51.7 °C
BP [1]: 51.7 °C
flammability (flame on open flame passed across liquid surface) [3]: no flame was observed
Dielectric Constant (Dk) [2]: 4.34
Dk [2]: 4.34

F/C=C(\F)C(F)(F)C(F)F [Compound 3, (Z)-1,2,3,3,4,4-hexafluorobut-1-ene]
Bp [1]: 40.4 °C
BP [1]: 40.4 °C
flammability (flame on open flame passed across liquid surface) [3]: no flame is observed

F/C=C(/F)C(F)(F)C(F)F [Compound 4, (E)-1,2,3,3,4,4-hexafluorobut-1-ene]
Bp [1]: 45.3 °C
BP [1]: 45.3 °C
flammability (flame on open flame passed across liquid surface) [3]: no flame was observed
Dielectric Constant (Dk) [2]: 5.09
Dk [2]: 5.09
